Laboratory results published in patent US20130310347A1, “MULTI-MODALITY MOLECULAR IMAGING HIGH-THROUGHPUT ASSAY FOR IDENTIFYING HEAT SHOCK PROTEIN 90 (HSP90) INHIBITORS” (The Board of Trustees of the Leland Stanford Junior …, priority 2012, published 2013).

What was measured:
[1] = target: T1, Hsp90α/p23 interactions (Homo sapiens, UniProt P07900); test: CP9 analogue evaluation, RL/FL imaging in 293Tα-FG cells; format: cell-based; details: time- and dose-response curves in 293T-FG cells; read-out: IC50 for inhibition of Hsp90α/p23 signals
T1 construct: expressed in transfected cells; also with FL-eGFP reporter (293Tα-FG) and as xenografts in nude mice
Procedure: To improve the efficacy of CP9 in disruption of Hsp90(α/β)/p23 interactions in living mice, a structure-activity relationship (SAR) study was performed using 62 structural analogues (10 μM) with different modifications on CP9, as shown in FIGS. 2A-2G, using the 293T(α/β)-FG stable cells. Their effects on Hsp90(α/β)/p23 interactions and cell proliferation were monitored by sequential RL (FIG. 11A) and FL imaging at 24 h. CP9, PU-H71 and 17-AAG were used as positive controls. The net effect on Hsp90(α/β)/p23 interactions was determined by normalizing RL to that of FL signals and to that of carrier control-treated cells (FIG. 11B).
The IC50 for growth inhibition by A17 was about 2-fold lower than that of CP9 (FIG. 12A).
(§1) CP9 (0.3-10 μM), 17-AAG (10 μM) and PU-H71 (5 μM) were used as positive controls in triplicate wells. The efficacy of the analogues in disruption of Hsp90(α/β)/p23 and cell proliferation were monitored by RL imaging (2 h post upon addition of ENDUREN® at 30 μM final concentration) followed by FL imaging (10 mins post addition of D-Luc at 0.225 mg/ml final concentration) using a cooled CCD camera (1 min and 10 sec for RL and FL imaging, respectively). […] The effect of the CP9 analogues on degradation of Hsp90 client proteins in 293T cells were also monitored by western blotting as described above.

[2] = test system: Hsp90(α/β)/p23 interactions; test: BLI of lead compounds in intact 293T cells with split RL reporters; format: cell-based, human
Procedure: Bioluminescence signals were quantified and normalized for cell number and that of carrier control treated cells (right). Results were expressed as mean±S.E.M.
To determine the effect of lead compounds on disruption of Hsp90(α/β)/p23 interactions in intact cells, 3.5×10^4 293T cells stably transfected with split RL reporters as described in Chan et al., (2008) Cancer Res. 68: 216-226, were plated in each well in the 96-well black wall plate (Costar, Corning, N.Y.) and allowed to attach for 24 h, prior to treatment with different concentrations of the lead compounds for 24 h. The 10 μg/ml of ENDUREN® (in […] of cell culture medium) was added to each well for 1.5 h and RL activities were determined. BLI signals were normalized to that of cell number for each well (determined by Alamar Blue assay (Invitrogen, Carlsbad, Calif.)), prior to normalization to carrier control-treated cells.

[3] = test system: 1975, 2008, HT29 cells; test: 3H-FLT cell uptake (mammalian thymidine kinase activities); format: cell-based; details: 48 h post treatment
Procedure: FIG. 10D is a graph illustrating the effect of CP9 on mammalian thymidine kinase activities in 1975, 2008, HT29, and MEFs cells as determined by ^3H-FLT cell uptake studies 48 h post treatment. Results were expressed as mean counts per minute/μg protein/initial dose±S.E.M. *, p<0.05 vs. carrier control treated cells.
To determine the specificity of CP9 in inhibition of glucose metabolism, normal MEF cells were used as a control.
To determine the downstream effects of lead compounds on glucose metabolism, 1.5×10^5 293T, 1975 and 2008 and MEFs cells plated in 24-well plate for 24 h, prior to treatment with different concentrations of CP9 for 24 or 48 h and subsequent incubation with 1 μCi of ^3H-FDG in 500 μl of medium for 1 h at 37° C. Cells treated with 2.5 μM of PU-H71 served as a positive control. The total counts in each sample were normalized to that of the dose added to each well and to the amount of protein, and expressed as mean counts/dose/μg protein±S.E.M. Likewise, the effect of CP9 on cell proliferation was determined using 1 μCi of ^3H-FLT per well after 2 h of incubation at 37° C.

[4] = test system: pAkt/total Akt and Raf-1; test: Western blotting of client proteins in 293T-FG cells (CP9 analogues); format: cell-based, human; details: different concentrations
Procedure: Cells treated with PU-H71 and 17-AAG (2.5 μM) served as positive controls. α-Tubulin was used as the loading control.
To determine if the reduction in IC50 for Hsp90(α/β)/p23 interactions also led to improved efficacy of A17 as an Hsp90 inhibitor, 293T-FG cells were treated with different concentrations of CP9 and A17. PU-H71 and 17AAG were used as positive controls. The expression of pAkt/total Akt and Raf-1 was determined by western blotting. […] Since A17 has a lower logP value (partition coefficient) than CP9 (2.8 versus 4.1), it may be more hydrophilic, have less non-specific binding to serum proteins and thus better bioavailability in tumors.
as §1, with “respectively). RL signals were normalized to that of FL signals to account for the effect of the analogues on cell proliferation.” for “respectively).”

[5] = test system: Hsp90 client proteins (phosphorylated/total Akt, Raf-1); test: Ex vivo western blotting of excised tumors; format: in vivo, mice; details: western blotting after last imaging time point; p>0.05
Procedure: To determine if the inhibition of Hsp90(α/β)/p23 interactions also leads to degradation of Hsp90 client proteins in mice, tumors were excised from sacrificed mice after the last PET/CT imaging time point. The expression of phosphorylated/total Akt and Raf-1 in tumor lysates was determined by western blotting. α-tubulin was used as a loading control.
Mice were euthanized after the last imaging time points and tumors were excised and homogenized in tissue extraction buffer in the presence of HALT® protease and phosphatase inhibitors (all from Pierce, Ill.). Protein concentrations were determined by Biorad Protein Dc assay. The expression of phosphorylated/total Akt, Raf-1 and […] were determined by western blotting as described in Chan et al., (2008) Cancer Res. 68: 216-226. Western blot images were quantitated using NIH Image J, and expressed as the ratio of target protein/α-tubulin for each treatment group.

## Cc1cc(NC(=O)CSc2nc(-c3cccs3)cc(C(F)(F)F)n2)no1 [CP9, N-(5-methylisoxazol-3-yl)-2-(4-(thiophen-2-yl)-6-(trifluoromethyl)pyrimidin-2-ylthio)acetamide]
[1]
  IC50: 450 nM
[2]; 293T cells
  selectivity for Hsp90α/p23 BLI signals relative to Hsp90β/p23 interactions: more selective for inhibition of Hsp90α/p23 BLI signals
[2]; 24 h, normalized for cell number and carrier control
  bioluminescence signals in 293T cells expressing Hsp90α/p23 and Hsp90β/p23 split RL reporters: dose-dependent decrease
[3]
  3H-FLT uptake in cancer cell lines: inhibits
[4]
  degradation of pAkt/total Akt and Raf-1: dose-dependent decreases
[5]
  Hsp90 client proteins in excised tumors relative to carrier control: did not lead to significant degradation
